Our source for the viability values is article PMC12040169 (PLOS Biology, 2025).

The series can be described thus: in vitro. The settings on record: human, hela cells, % viability.

Consider `O=C(c1ccco1)N1CCC(n2c(=O)oc3ccccc32)CC1` [CBK284350], for which the viability at 28.5 h, 10 µM was 92.8%.

As for `O=C(CCSc1ccccc1)Nc1ccc(S(=O)(=O)N2CCOCC2)cc1` [CBK266568], the viability at 28.5 h, 10 µM stood at 114%.

`CN1C(=O)C2(CC(=O)N(CCC3CCCCC3)C2=O)c2ccccc21` (stereo not drawn) [CBK075461]: the viability at 28.5 h, 10 µM is 109%.

Consider `Cc1cc(NCC2CCCO2)n2ncc(-c3ccccc3)c2n1` (stereo not drawn) [CBK304530], for which the viability at 28.5 h, 10 µM is 83.8%.

`Cc1nn(C)c2c1c(=O)n(C)c(=O)n2C` [CBK026140]: the viability at 28.5 h, 10 µM is 89.2%.

With `Cc1ccccc1-c1cc(C(=O)Nc2ccc(S(N)(=O)=O)cc2)c2cc(Cl)ccc2n1` [CBK267741], the viability at 28.5 h, 10 µM was found to be 90%.

Take `O=C(Nc1ccnn1Cc1cccs1)c1cc(=O)[nH]c2ccccc12` [CBK295606]: the viability at 28.5 h, 10 µM turned out to be 102%.

On to `CCN1C(=O)CC(N2CCN(c3cc(-c4ccc(OC)cc4)nc(C)n3)CC2)C1=O` (stereo not drawn) [CBK269744], for which the viability at 28.5 h, 10 µM was 106%.

Regarding `COCC(C)NC(=O)c1cc2c(C)cc(C)cc2[nH]1` (stereo not drawn) [CBK057591], the viability at 28.5 h, 10 µM amounted to 91.8%.

Consider `CCCC/C=C/c1cn2ccnc2c(NCCc2ccccn2)n1` [CBK066275], for which the viability at 28.5 h, 10 µM was determined as 106%.

For `O=C(NC1CC(=O)N(CC(F)(F)F)C1)c1cnc(-c2ccncc2)s1` (stereo not drawn) [CBK305546], the viability at 28.5 h, 10 µM turned out to be 78%.

Turning to `CCN1CCN(c2ccc(NC(=O)c3ccc(-c4cc5ccccc5oc4=O)cc3)cc2Cl)CC1` [CBK266700], the viability at 28.5 h, 10 µM was 84.6%.

In the case of `CCOC(=O)c1c(NC(=O)c2cccnc2)sc2c1CCCC2` [CBK304574], the viability at 28.5 h, 10 µM is 101%.

In the case of `O=C(O)Cc1ccc(NC(=O)c2cccc(NC(=O)c3ccco3)c2)cc1` [CBK268606], the viability at 28.5 h, 10 µM worked out at 96.7%.

Take `Cn1ccnc1C1(O)CC2CCC(C1)N2C(=O)c1cccs1` (stereo not drawn) [CBK284088]: the viability at 28.5 h, 10 µM stood at 94.2%.

Regarding `CC(C)C1OC(NCc2ccc(Cl)cc2)=NC1=O` (stereo not drawn) [CBK070352], the viability at 28.5 h, 10 µM is 94.9%.

As to `Nc1ccc([C@@H]2CN(Cc3ccccc3)C[C@]23CCCC(=O)N3)cc1` [CBK284649], the viability at 28.5 h, 10 µM turned out to be 97.5%.

In the case of `Cc1nn(CC(=O)N2CCCCCC2)c(=O)c2cc3sccc3n12` [CBK284084], the viability at 28.5 h, 10 µM turned out to be 80.4%.

Turning to `CCNC(=O)N1CC2(CCN(CCSC)CC2)c2ccccc21` [CBK126709], the viability at 28.5 h, 10 µM is 101%.

`O=c1[nH]c(=O)c2cc(S(=O)(=O)Nc3ccc(Cn4ccnc4)cc3)ccc2[nH]1` [CBK286383]: the viability at 28.5 h, 10 µM came out at 105%.

In the case of `O=[N+]([O-])c1ccc(OCCOc2nccnc2N2CCNCC2)c2ncccc12` [CBK000623C], the viability at 28.5 h, 10 µM was determined as 94.9%.

Take `CCn1c(C)cc2cc(NC(=O)c3cnc(C)nc3C)ccc21` [CBK283260]: the viability at 28.5 h, 10 µM worked out at 104%.

For `Cc1ccc(-c2nn(CCC#N)cc2C(=O)N2CCOCC2)cc1C` [CBK305940], the viability at 28.5 h, 10 µM worked out at 96.7%.

Turning to `CNC(=S)NCc1ccncc1` [CBK020033], the viability at 28.5 h, 10 µM was found to be 106%.

Regarding `CCCCNC(=O)CCCN(CC)CCC1=CC2(CCCC2)c2ccccc21` [CBK013232], the viability at 28.5 h, 10 µM turned out to be 91.7%.

On to `Nc1ccc(S(=O)(=O)Nc2nccc(/C=C/c3ccc(Cl)cc3)n2)cc1` [CBK263254], for which the viability at 28.5 h, 10 µM was 105%.

On to `Cn1cc(C(=O)O)c(NC(=O)c2ccccc2Cl)n1` [CBK000353], for which the viability at 28.5 h, 10 µM was determined as 95.8%.

With `O=C(NCCN1CCOCC1)c1ccc(-c2ccco2)nc1NCc1cccnc1` [CBK076112], the viability at 28.5 h, 10 µM was determined as 101%.

For `COc1cccc(-c2cc(C(=O)Nc3nnn[nH]3)c3ccccc3n2)c1` [CBK262640], the viability at 28.5 h, 10 µM came to 98.6%.

For `Cn1cc(CN2C3CCC(C3)[C@@H]2COc2ccc(F)cc2)cn1` (stereo partly drawn) [CBK282257], the viability at 28.5 h, 10 µM turned out to be 106%.

In the case of `CC(=O)Nc1ccc(S(=O)(=O)Oc2ccc(C3C4=C(CC(C)(C)CC4=O)N=C4c5ccccc5C(=O)C43)cc2)cc1` (stereo not drawn) [CBK262964], the viability at 28.5 h, 10 µM was found to be 93.7%.

`CCC(CC)(CC(=O)Nc1ccc(N2CCCC2=O)c(C)c1)C(=O)O` [CBK297881]: the viability at 28.5 h, 10 µM turned out to be 101%.

As for `O=C(NCc1cccs1)NC1CCCc2c1cnn2CCO` (stereo not drawn) [CBK305658], the viability at 28.5 h, 10 µM worked out at 100%.

Consider `CCn1cc(C(=O)O)c(=O)c2cnc(N3CCN(C(=S)Nc4ccc5c(c4)OCO5)CC3)nc21` [CBK267930], for which the viability at 28.5 h, 10 µM was 90.6%.

In the case of `CS(=O)(=O)N[C@H]1CCN2C(=O)c3cc(-c4ccc(Cl)cc4)ccc3NC(=O)[C@@H]2C1` [CBK289565], the viability at 28.5 h, 10 µM turned out to be 95.3%.

`CC1=CC(C)C(=S)NC(C)=C1` (stereo not drawn) [CBK022735]: the viability at 28.5 h, 10 µM was 91%.

Regarding `Cc1cc(C)c(OCCNC(=O)c2ccccc2Sc2ccccc2C#N)c(C)c1` [CBK266048], the viability at 28.5 h, 10 µM amounted to 97.7%.

Turning to `CC(C)CNc1nc2c(c(=O)n(Cc3ccccc3)c(=O)n2C)n1Cc1ccccc1` [CBK293946], the viability at 28.5 h, 10 µM was found to be 81.7%.

As to `CN(C)CCC1CCCCN1C(=O)[C@@H]1C[C@@H]2C=C[C@H]1C2` (stereo partly drawn) [CBK282054], the viability at 28.5 h, 10 µM worked out at 89.2%.

For `Nc1ncc(-c2cc(C(F)(F)F)cc(C(F)(F)F)c2)nc1Nc1ccc2[nH]ccc2c1` [CBK063651], the viability at 28.5 h, 10 µM is 71.9%.

For `Fc1cc(Cl)ccc1NC(=S)NCCN1CCOCC1` [CBK268441], the viability at 28.5 h, 10 µM stood at 98.4%.

For the compound `CC(C)C(=O)Nc1ccc2c(c1)C(=O)N(CCC(=O)O)C2=O` [CBK286544], the viability at 28.5 h, 10 µM amounted to 86.1%.

Take `O=C(Cc1csc(-c2ccc(Cl)cc2)n1)N1CCN(c2ccccn2)CC1` [CBK107310]: the viability at 28.5 h, 10 µM is 97%.

As for `Cc1cc(C)nc(Nc2n[nH]c(-c3ccc(N)cc3)n2)n1` [CBK267131], the viability at 28.5 h, 10 µM was 99.5%.

Take `CCOC1C(OCC)N(S(=O)(=O)c2ccc(C)cc2)CCN1S(=O)(=O)c1ccc(C)cc1` (stereo not drawn) [CBK261832]: the viability at 28.5 h, 10 µM worked out at 116%.

Turning to `CCCNC(=O)N1CCN2C(=O)c3cc(-c4ccccc4F)ccc3NC(=O)[C@@H]2C1` [CBK289595], the viability at 28.5 h, 10 µM amounted to 95.5%.

In the case of `O=C(c1cc[nH]n1)N1CCC2(CC1)Nc1ccccc1-n1cccc12` [CBK283652], the viability at 28.5 h, 10 µM was found to be 96.1%.

For the compound `C#CCNS(=O)(=O)c1cccc(C(=O)NC2CCN(CCOC)CC2)c1` [CBK305714], the viability at 28.5 h, 10 µM stood at 89%.

As to `COC(=O)CCc1ccc(S(=O)(=O)N2CCCN(Cc3cc(F)cc(F)c3)CC2)cc1` [CBK062990], the viability at 28.5 h, 10 µM amounted to 106%.

Take `O=C(c1ccco1)N1CCc2c([nH]c3ccccc23)C12CCN(Cc1ccccc1)CC2` [CBK286313]: the viability at 28.5 h, 10 µM amounted to 91%.

`CC1(C)Cc2c(oc(N)c2C#N)CO1` [CBK014395]: the viability at 28.5 h, 10 µM amounted to 101%.

For `COc1cc(CN2CCCCC2CO)c([N+](=O)[O-])cc1OC` (stereo not drawn) [CBK261730], the viability at 28.5 h, 10 µM is 85.1%.

For `CC(Oc1cccc(Cl)c1)c1nc(-c2cccs2)no1` (stereo not drawn) [CBK293984], the viability at 28.5 h, 10 µM worked out at 90.8%.

On to `Nc1ncc(-c2ccc(C(F)(F)F)cc2)c(C2CCCN(C(=O)C3CCCCC3)C2)n1` (stereo not drawn) [CBK285791], for which the viability at 28.5 h, 10 µM was found to be 98.9%.

As to `Nc1nnc(SCCC(=O)N2CCN(c3ccc(F)cc3)CC2)s1` [CBK304597], the viability at 28.5 h, 10 µM was 84.7%.

For the compound `COc1cc(F)cc(OC2CCNCC2)c1NC(=O)c1coc2c1C(=O)CCC2` [CBK050351T], the viability at 28.5 h, 10 µM turned out to be 91.5%.

Take `CC(=O)N1CCC[C@H]2NC(=O)CNC(=O)C3(C/C=C/C[C@H]21)CCN(C(=O)c1cc(C)no1)CC3` [CBK292176]: the viability at 28.5 h, 10 µM was determined as 104%.

`C#CCNC(=O)CC[C@H]1CNC(=O)[C@@H]2[C@@H](CCN2Cc2ccc(O)cc2)N1C` [CBK289017]: the viability at 28.5 h, 10 µM turned out to be 94%.

With `COc1ccc(C(C)C)cc1-c1cc2ncccc2nc1N` [CBK081202], the viability at 28.5 h, 10 µM was found to be 89.3%.

For the compound `Cc1cnc(CNC(=O)N(CCC#N)C2CCCCC2)cn1` [CBK156352], the viability at 28.5 h, 10 µM was 96.5%.

Turning to `COc1ccc(/C=C/C(C)=C\C(=O)O)c(OC)c1` [CBK262237N], the viability at 28.5 h, 10 µM amounted to 94.8%.

Regarding `O=C(NC[C@H]1O[C@@H](CC(=O)N2CCCC2)[C@H](O)[C@@H]1O)c1cccc(F)c1` [CBK288908], the viability at 28.5 h, 10 µM is 88.3%.

As to `CC1CCC2(CC1)NC(=O)N(Cc1csc(-c3ccco3)n1)C2=O` (stereo not drawn) [CBK304279], the viability at 28.5 h, 10 µM was determined as 98.6%.

Turning to `Cc1cccc(NC(=O)c2n[nH]c3ccccc23)c1` [CBK288231], the viability at 28.5 h, 10 µM was determined as 84.6%.

With `OCC12COC3c4ccccc4C(OC1)N32` (stereo not drawn) [CBK006347], the viability at 28.5 h, 10 µM came out at 89.5%.

As to `O=C(CO)N1CC2(CCN(Cc3ccc(OC(F)(F)F)cc3)CC2)c2ccccc21` [CBK131493], the viability at 28.5 h, 10 µM turned out to be 106%.

On to `O=C(NCC(c1ccccc1)c1c[nH]c2ccccc12)Nc1ccc(Cl)cc1` (stereo not drawn) [CBK269147], for which the viability at 28.5 h, 10 µM amounted to 91.9%.

For `CCN(CC)C(=O)c1[nH]c2ccccc2c1NS(=O)(=O)c1ccc(F)cc1` [CBK050105], the viability at 28.5 h, 10 µM is 94.1%.

Regarding `Cc1cccnc1Nc1ccc(C2CCCN(C(=O)Cc3c[nH]c4ccccc34)C2)nc1` (stereo not drawn) [CBK285968], the viability at 28.5 h, 10 µM turned out to be 97.7%.

`COc1nn(CC(=O)NC2(C)CCC2)c(=O)c2ccccc12` [CBK281603]: the viability at 28.5 h, 10 µM is 83.2%.

In the case of `COc1cccc(CNc2ccc(C3c4ccsc4CCN3C(C)=O)cc2)c1` (stereo not drawn) [CBK286443], the viability at 28.5 h, 10 µM is 109%.

As for `c1cncc(CNc2nccnc2-c2ccoc2)c1` [CBK037635], the viability at 28.5 h, 10 µM amounted to 96.4%.

As to `COCC1CCCN1C(=O)c1cnn2c(C)c(Cc3cccc(C#N)c3)c(C)nc12` (stereo not drawn) [CBK162099], the viability at 28.5 h, 10 µM stood at 99.6%.

As to `O=S(=O)(c1cccc(C(F)(F)F)c1)n1ccc2c(CN3CCC[C@@H]3CO)cccc21` [CBK116167T], the viability at 28.5 h, 10 µM was determined as 96.8%.

Regarding `NC(=O)NC(CC(=O)N1CCOC2CCCCC21)c1cccc(Br)c1` (stereo not drawn) [CBK306299], the viability at 28.5 h, 10 µM was determined as 93.8%.

Regarding `COc1ccc(CCCC(=O)Nc2ccc(N3CCNCC3)nc2)cc1OC` [CBK028272T], the viability at 28.5 h, 10 µM is 82.4%.

As to `C=C(C)Cn1c(SCCC(=O)OC)nc2sc3c(c2c1=O)CC(C)(C)OC3` [CBK026634], the viability at 28.5 h, 10 µM was determined as 59.9%.

For `COc1cccc(CN(C)CCN(C)C)c1O` [CBK261905], the viability at 28.5 h, 10 µM is 102%.
